# “Also recorded” adds a separate entry of the source.
# System: α1G−/− transgenic mice
# Test: Mobility in an open field after drug treatment (pharmacological analysis)
# Type: in vivo, mouse
# Conditions: 0.5 mg/kg injected into abdominal cavity, FIG. 8
# Excerpt: For reactivity test in an open field, a test animal was transferred to a test room one hour before the test began and each animal was put in an independent breeding cage for adaptation.
# In order to investigate whether or not mobility increase of α1G−/− transgenic mice is related to diseases such as attention-deficit hyperactive disorder, schizophrenia, stereotype, etc., the present inventors have performed analysis of pharmacological effect of lithium and amphetamine which have been used as a therapeutic agent for the above diseases.
# First, the effect of lithium and amphetamine on reactivity to a new subject was investigated. Particularly, one hour before exposing a test animal on an experimental device, lithium or amphetamine (0.5 mg/kg, injection 10 ml/kg) was injected into abdominal cavity of the animal. The test procedure was in accordance with that of reactivity test in an open field, but a breeding cage (24×18×13 cm) took the place of a white acryl open field in this example and a subject used was a styrofoam covered with 0.5 g aluminum foil and the size of which was 1.5×1.5×1.5 cm. Behavior of the animal was all recorded by a video camera for further analysis. Same standard and behavior index were used.
smiles,measurement,value
CC(N)Cc1ccccc1 (centres unmarked) [amphetamine],early mobility increase of α1G−/− transgenic mice,not mitigated; also recorded: did not decrease
same,non environment dependent mobility increase,over-induced; also recorded: increased excessively

# Source: patent US7723562B2, “Mice lacking alpha 1G showing enhanced novelty-seeking and alcohol preference and therapeutic methods for mood disorders by modulating alpha 1G T-type calcium channels” (Korea Institute of Science and Technology, priority 2004, dated 2010)
